“Also recorded” adds a separate entry of the source.
Experiments:
Format in all cases: cell-based, Pichia stipitis
Set-up in all cases: key to Rotenone sensitivity (rotenone-insensitive respiration): +: Cells sustained rotenone-insensitive respiration; −: Cells could not sustain rotenone-insensitive respiration
[1] = test system: P. stipitis FPL-Shi31 (sto1-Δ); experiment: Respiration measurement (oxygen uptake) with inhibitor; conditions: for Rotenone sensitivity (rotenone-insensitive respiration): 0.1 mM rotenone, FPL-Shi31; for Sensitivity of respiration to rotenone (in words): sto1Δ mutant
Description: (§1) P. stipitis strains were grown overnight in YNBUP-xylose (2%) medium under aerobic conditions. Then half of the overnight-grown cells were transferred to 25 mL fresh medium to grow for 16 h to mid-log phase under the same conditions. The cells were harvested and washed in an assay buffer containing 20 mM potassium phosphate (pH7.0) and 5 mM magnesium chloride. The cells were resuspended in 500 μL of the same buffer for assays. Oxygen uptake was measured by using a Clark type of electrode (Yellow Spring Instrument). The assay was performed in an assay buffer containing 20 mM potassium phosphate, 5 mM magnesium chloride, plus xylose or glucose (2%) as the substrate at 30° C. The assay buffer was saturated with air before the experiment. Ten to fifty μL of cells were injected into the assay chamber and the total reaction volume was 2 mL. Antimycin A, SHAM or rotenone was dissolved in dimethyl formamide while potassium cyanide was dissolved in water. Inhibitor solution was injected into the chamber after adding the cells.

[2] = test system: P. stipitis FPL-Shi21 (cyc1-Δ); experiment: as above; conditions: for Effect on respiration: FPL-Shi21 (cyc1Δ); for Rotenone sensitivity (rotenone-insensitive respiration): 0.1 mM rotenone, FPL-Shi21; for Sensitivity of respiration to rotenone (in words): cyc1Δ mutant
Description: as §1

[3] = test system: P. stipitis wild-type CBS 6054; experiment: Respiration measurement (oxygen uptake, Clark type electrode) with inhibitor; conditions: 0.1 mM rotenone
Description: as §1

[4] = test system: P. stipitis FPL-UC7 (ura3-3); experiment: Respiration measurement (oxygen uptake) with inhibitor; conditions: for Rotenone sensitivity (rotenone-insensitive respiration): 0.1 mM rotenone
Description: as §1

Compound: O=C(NO)c1ccccc1O [SHAM, salicyl hydroxymate]
- Effect on respiration trace ([1]; 4 mM SHAM, sto1Δ cells pre-grown on YNB-xylose (2%)): did not show any change
- Effect on respiration [2]: completely blocked

Compound: C=C(C)[C@H]1Cc2c(ccc3c2O[C@@H]2COc4cc(OC)c(OC)cc4[C@@H]2C3=O)O1 [rotenone]
- Rotenone sensitivity (rotenone-insensitive respiration) ([3]; glucose-grown cells, CBS 6054): −
- Sensitivity of respiration to rotenone (in words) ([3]; glucose-grown cells, CBS 6054): could not sustain any respiration; also recorded: rotenone-sensitive
- Time after injection until cells died and floated in the chamber ([3]; glucose-grown cells, CBS 6054): ≤ 1 min
- Oxygen consumption rate, +rotenone ([3]; xylose-grown cells): 4.6 ± 0.2 µM/mg/h
- Rotenone sensitivity (rotenone-insensitive respiration) ([3]; xylose-grown cells, CBS 6054): +
- Sensitivity of respiration to rotenone (in words) ([3]; xylose-grown cells, CBS 6054): respiration was sustained; also recorded: insensitivity to rotenone
- Rotenone sensitivity (rotenone-insensitive respiration) ([4]; glucose-grown cells): −
- Rotenone sensitivity (rotenone-insensitive respiration) ([4]; xylose-grown cells): +
- Sensitivity of respiration to rotenone (in words) ([4]; glucose-grown cells): rotenone-sensitive
- Sensitivity of respiration to rotenone (in words) ([4]; xylose-grown cells): insensitivity to rotenone
- Rotenone sensitivity (rotenone-insensitive respiration) ([1]; glucose-grown cells): −
- Rotenone sensitivity (rotenone-insensitive respiration) ([1]; xylose-grown cells): −
- Sensitivity of respiration to rotenone (in words) ([1]; glucose-grown cells): rotenone-sensitive
- Sensitivity of respiration to rotenone (in words) ([1]; xylose-grown cells): rotenone-sensitive
- Rotenone sensitivity (rotenone-insensitive respiration) ([2]; glucose-grown cells): −
- Rotenone sensitivity (rotenone-insensitive respiration) ([2]; xylose-grown cells): −
- Sensitivity of respiration to rotenone (in words) ([2]; glucose-grown cells): rotenone-sensitive
- Sensitivity of respiration to rotenone (in words) ([2]; xylose-grown cells): rotenone-sensitive

Compound: antimycin A
- Effect on respiration ([1]; 10 μM antimycin A, sto1Δ mutant cells): respiration dropped to zero
- Effect on respiration [2]: insensitivity

From patent US6391599B1, “Sham-sensitive terminal oxidase gene from xylose-fermenting yeast” (priority 2000, dated 2002)
